Data as given in patent publication US20070128217A1 (priority 2003, published 2007).

Assays:
[1] = tested on: antibodies in sera from SARS patients (sera 1a, 1b, 2, 6, 37, 62, London, SARS-yellow, SARS-green); assay type: binding, human; design: Binding of serum 6 to linear peptides of protein X1 of SARS-CoV Urbani / Binding of serum 37 to linear peptides of protein X1 of SARS-CoV Urbani / Binding of serum 6 to looped/cyclic peptide (PEPSCAN-ELISA) / Binding of serum 37 to looped/cyclic peptide (PEPSCAN-ELISA) / Binding of serum 37 to looped/cyclic peptides of protein X1 of SARS-CoV Urbani / Binding of serum 6 to linear peptides of protein X2 / Binding of serum 37 to linear peptides of protein X2 / Binding of serum 37 to looped/cyclic peptides of protein X2 of SARS-CoV Urbani / Binding of serum 6 to linear peptides of protein M of SARS-CoV Urbani / Binding of serum 37 to linear peptides of protein M of SARS-CoV Urbani / Binding of serum 6 to looped/cyclic peptides of protein M of SARS-CoV Urbani / Binding of serum 37 to looped/cyclic peptides of protein M of SARS-CoV Urbani / Binding of serum 6 to linear peptides of protein X3 of SARS-CoV Urbani / Binding of serum 37 to linear peptides of protein X3 of SARS-CoV Urbani / Binding of serum 37 to looped/cyclic peptides of protein X3 of SARS-CoV Urbani / Binding of serum 6 to linear peptides of protein X4 of SARS-CoV Urbani / Binding of serum 37 to linear peptides of protein X4 of SARS-CoV Urbani / Binding of serum 37 to looped/cyclic peptides of protein X4 of SARS-CoV Urbani / Binding of serum 6 to linear peptides of protein X5 of SARS-CoV Urbani / Binding of serum 37 to linear peptides of protein X5 of SARS-CoV Urbani / Binding of serum 37 to looped/cyclic peptides of protein X5 of SARS-CoV Urbani / Binding of serum 6 to linear peptides of protein N of SARS-CoV Urbani / Binding of serum 37 to linear peptides of protein N of SARS-CoV Urbani / Binding of serum 6 to linear peptide (PEPSCAN-ELISA) / Binding of serum 1a to looped/cyclic peptides of protein N of SARS-CoV Urbani / Binding of serum 1b to looped/cyclic peptides of protein N of SARS-CoV Urbani / Binding of serum 2 to looped/cyclic peptides of protein N of SARS-CoV Urbani / Binding of serum 6 to looped/cyclic peptides of protein N of SARS-CoV Urbani / Binding of serum 37 to looped/cyclic peptides of protein N of SARS-CoV Urbani / Binding of serum 62 to looped/cyclic peptides of protein N of SARS-CoV Urbani / Binding of serum London to looped/cyclic peptides of protein N of SARS-CoV Urbani / Binding of serum SARS-green to looped/cyclic peptides of protein N of SARS-CoV Urbani: unit not given here
[2] = tested on: control sera (pooled serum of ten healthy LUMC hospital workers; commercial negative donor pooled serum from the Dutch bloodbank); assay type: binding, human; design: Binding of Control serum LUMC to linear peptides / Binding of Control serum Blood-bank to linear peptides / Binding of Control serum LUMC to looped peptides / Binding of Control Serum Blood-Bank to Looped peptides / Binding of Control serum LUMC to linear peptides of the protein M of SARS-CoV Urbani / Binding of Control serum Blood-bank to linear peptides of the protein M of SARS-CoV Urbani / Binding of Control serum LUMC to looped peptides of the protein M of SARS-CoV Urbani / Binding of Control Serum Blood-Bank to Looped peptides of the protein M of SARS-CoV Urbani: unit not given here
[3] = tested on: rabbit serum obtained by immunizing a rabbit with the SARS-CoV strain Frankfurt 1; assay type: binding; design: Binding of a rabbit serum to linear peptides / Binding of a rabbit serum to looped peptides / Rabbit serum linear peptides / Rabbit serum looped peptides / Binding of a rabbit serum to linear peptides of protein N of SARS-CoV Urbani (Rabbit serum linear peptides) / Binding of a rabbit serum to looped/cyclic peptides of protein N of SARS-CoV Urbani (Rabbit serum looped peptides): unit not given here

## FVTIYSHLLLVAAGM
[1]
  Binding of serum 1a to linear peptides of protein X1 of SARS-CoV Urbani: 0.7
  Binding of serum 1a to looped/cyclic peptide (PEPSCAN-ELISA): 0.5
  Binding of serum 1b to linear peptides of protein X1 of SARS-CoV Urbani: 0.5
  Binding of serum 1b to looped/cyclic peptide (PEPSCAN-ELISA): 0.3
  Binding of serum 2 to linear peptides of protein X1 of SARS-CoV Urbani: 0.6
  Binding of serum 2 to looped/cyclic peptide (PEPSCAN-ELISA): 0.3
  Binding of serum 6 to linear peptides of protein X1 of SARS-CoV Urbani: 0.4
  Binding of serum 6 to looped/cyclic peptide (PEPSCAN-ELISA): 0.3
  Binding of serum 37 to linear peptides of protein X1 of SARS-CoV Urbani: 0.5
  Binding of serum 37 to looped/cyclic peptide (PEPSCAN-ELISA): 0.5
  Binding of serum 62 to linear peptides of protein X1 of SARS-CoV Urbani: 0.5
  Binding of serum 62 to looped/cyclic peptide (PEPSCAN-ELISA): 0.5
  Binding of serum London to linear peptides of protein X1 of SARS-CoV Urbani: 0.2
  Binding of serum London to looped/cyclic peptide (PEPSCAN-ELISA): 0.2
  Binding of serum SARS-green to linear peptides of protein X1 of SARS-CoV Urbani: 0.3
  Binding of serum SARS-green to looped/cyclic peptide (PEPSCAN-ELISA): 0.2
  Binding of serum SARS-yellow to linear peptides of protein X1 of SARS-CoV Urbani: 0.5
  Binding of serum SARS-yellow to looped/cyclic peptide (PEPSCAN-ELISA): 0.3
[2]
  Binding of Control Serum Blood-Bank to Looped peptides: 0.6
  Binding of Control serum Blood-bank to linear peptides: 0.6
  Binding of Control serum LUMC to linear peptides: 0.5
  Binding of Control serum LUMC to looped peptides: 0.5
[3]
  Binding of a rabbit serum to linear peptides: 0.1
  Binding of a rabbit serum to looped peptides: 0.5

## WNLVIGFLFLAWIML
[1]
  Binding of serum 1a to linear peptides of protein M of SARS-CoV Urbani: 0.7
  Binding of serum 1a to looped/cyclic peptides of protein M of SARS-CoV Urbani: 0.6
  Binding of serum 1b to linear peptides of protein M of SARS-CoV Urbani: 0.6
  Binding of serum 1b to looped/cyclic peptides of protein M of SARS-CoV Urbani: 0.5
  Binding of serum 2 to linear peptides of protein M of SARS-CoV Urbani: 0.4
  Binding of serum 2 to looped/cyclic peptides of protein M of SARS-CoV Urbani: 0.6
  Binding of serum 6 to linear peptides of protein M of SARS-CoV Urbani: 0.3
  Binding of serum 6 to looped/cyclic peptides of protein M of SARS-CoV Urbani: 0.4
  Binding of serum 37 to linear peptides of protein M of SARS-CoV Urbani: 0.4
  Binding of serum 37 to looped/cyclic peptides of protein M of SARS-CoV Urbani: 0.6
  Binding of serum 62 to linear peptides of protein M of SARS-CoV Urbani: 0.4
  Binding of serum 62 to looped/cyclic peptides of protein M of SARS-CoV Urbani: 0.6
  Binding of serum London to linear peptides of protein M of SARS-CoV Urbani: 0.3
  Binding of serum London to looped/cyclic peptides of protein M of SARS-CoV Urbani: 0.2
  Binding of serum SARS-green to linear peptides of protein M of SARS-CoV Urbani: 0.4
  Binding of serum SARS-green to looped/cyclic peptides of protein M of SARS-CoV Urbani: 0.3
  Binding of serum SARS-yellow to linear peptides of protein M of SARS-CoV Urbani: 0.2
  Binding of serum SARS-yellow to looped/cyclic peptides of protein M of SARS-CoV Urbani: 0.7
[2]
  Binding of Control Serum Blood-Bank to Looped peptides of the protein M of SARS-CoV Urbani: 0.5
  Binding of Control serum Blood-bank to linear peptides of the protein M of SARS-CoV Urbani: 0.6
  Binding of Control serum LUMC to linear peptides of the protein M of SARS-CoV Urbani: 0.6
  Binding of Control serum LUMC to looped peptides of the protein M of SARS-CoV Urbani: 0.7
[3]
  Rabbit serum linear peptides: 0.2
  Rabbit serum looped peptides: 0.3
